Read-outs that look alike come from different tables or passages of the source.
Experiments:
HepG2 [1] = test: Cell cycle analysis by flow cytometry; assay type: cell-based, human; settings: IC50 concentration, 96 h
Procedure, shortened: (§1)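 Step one: detach cells with trypsin and rinse with PBS. Step two: pellet, then treat with solution A for 10 min at room temperature. Step three: add solutions B and C, with the final incubation cold (4°C) and dark, before cytometric acquisition.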

CaCo2 [2] = test: Cell cycle analysis by flow cytometry; assay type: cell-based, human; settings: IC50 concentration, 96 h
Procedure, shortened: as §1

A549 [3] = test: Cell cycle analysis by flow cytometry; assay type: cell-based, human; settings: IC50 concentration, 96 h
Procedure, shortened: as §1

A2C12 [4] = test: Whole genome expression analysis (Affymetrix microarray); assay type: cell-based, mouse; settings: for Significantly differentially regulated genes, downregulated (number) / Significantly differentially regulated genes, upregulated (number): SAM FDR<0.01, FC>2
Experimental: The cells were harvested and RNA was isolated using RNeasy Mini Kit (Qiagen, Hilden, Germany) according to the instructions of the manufacturer. The isolated RNA (250 ng) was processed further using standard protocols as described recently with the exception of the 3′ IVT Express Kit (Affymetrix, High Wycombe, UK) that was utilized according to instructions. Quality control of cRNA was done with the Agilent 2100 Bioanalyzer (Agilent Tech according to manufacturer's protocols. Following fragmentation, cRNA of each sample was hybridized to Affymetrix GeneChip® Mouse Genome 430 2.0 or Human Genome U133 Plus 2.0 and scanned with an Affymetrix 3000 7G scanner.
The resultant data was normalized by Probe Logarithmic Intensity Error Estimation (PLIER) algorithm. Statistical analysis was carried out with the ArrayTrack software (National Center for Toxicological Research/FDA, Jefferson, AR, USA) using SAM algorithm.

[5] = system: human and murine cell lines; test: Western blot, statements over human and murine cell lines; assay type: cell-based; settings: IC50 concentration, 96 h
Experimental: For the Western Blot analysis, cells were rinsed and lysed as previously described. An amount of 25 µg protein was used for SDS-PAGE. Antibodies for c-Abl (sc-131), Actin (sc-1616), Cdc2-p34 (sc-8395), EPS15 (sc-1840), FAK (sc-558), c-Fos (sc-52), p38 (sc-7972), p53 (sc-6243) and STAT5 (sc-835x) were obtained from Santa Cruz (Santa Cruz Biotechnology, Heidelberg, Germany), while c-Src (2109) and phospho-Src Y416 (2101) were purchased from Cell Signaling (Cell Signaling Technology, Frankfurt a. M., Germany). The EGFR (06-847), phospho-EGFR Y992 (07-821) and phospho-EGFR Y1045 (04-284) stem from Upstate (Upstate, Schwalbach, Germany) and the hnRNP-K (A300-676A) from Bethyl Labs (Bethyl Laboratories, Montgomery, Texas, USA). Finally p73 (IMG-246) was supplied by Imgenex (Imgenex, Hamburg, Germany). Depending on the primary antibody the secondary antibodies were either horseradish peroxidase-conjugated anti-mouse (AP 160P), anti-rabbit (AP 132P) or anti-sheep (AP 147P) (Chemicon, Schwalbach, Germany).
Semi-quantitative analysis were carried out with Kodak 1D Image Analysis Software in reference to the vehicle treated control cells (see supplementary table S7).

GammaA3 = test: MTS cell viability assay; assay type: cell-based, mouse
Procedure, shortened: (§2)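 Viability was measured as MTS absorbance at 490 nm following 1 h with the tetrazolium reagent. Treatment with the dual kinase inhibitors, or 0.2% DMSO as vehicle, lasted 24 h or 96 h in monolayer cultures kept in DMEM plus 10% foetal calf serum.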

BetaD5 = test: MTS cell viability assay; assay type: cell-based, mouse
Procedure, shortened: as §2

GammaD12 = test: MTS cell viability assay; assay type: cell-based, mouse
Procedure, shortened: as §2

A2C12 [6] = test: MTS cell viability assay; assay type: cell-based, mouse
Procedure, shortened: as §2

HepG2 [7] = test: MTS cell viability assay; assay type: cell-based, human
Procedure, shortened: as §2

CaCo2 [8] = test: MTS cell viability assay; assay type: cell-based, human
Procedure, shortened: as §2

A549 [9] = test: MTS cell viability assay; assay type: cell-based, human
Procedure, shortened: as §2

[10] = IC50 concentration, 96 h, vs control
[11] = Mus musculus, 24 h, read-out: Calculated IC50 after single treatment for 24 h
[12] = Mus musculus, 96 h, read-out: Calculated IC50 after daily treatment for 96 h
[13] = 24 h, read-out: Calculated IC50 after single treatment for 24 h
[14] = 96 h, read-out: Calculated IC50 after daily treatment for 96 h

For `Clc1cccc(Nc2nc(SC3CCCC3)nc3c2cnn3CC(Cl)c2ccccc2)c1` (stereo not drawn) [Si135], the “Cells in G1 phase” value (HepG2 [1]) was 58%, the “Cells in G2 phase” value (HepG2 [1]) was 9.5% and the “Cells in S phase” value (HepG2 [1]) was 32.5%. For the same compound, the “Cells in G1 phase” value (CaCo2 [2]) was 42.1%, the “Cells in G2 phase” value (CaCo2 [2]) was 12.1% and the “Cells in S phase” value (CaCo2 [2]) was 45.8%. For the same compound, the “Cells in G1 phase” value (A549 [3]) was 50.8%, the “Cells in G2 phase” value (A549 [3]) was 8.6% and the “Cells in S phase” value (A549 [3]) was 40.6%. The “Significantly differentially regulated genes, downregulated (number)” value (A2C12 [4]; IC50 concentration, 96 h) was 33, the “Significantly differentially regulated genes, upregulated (number)” value (A2C12 [4]; IC50 concentration, 96 h) was 118 and the Actg2 gene expression (A2C12 [4]; [10]) was -4.51 log2 of fold change. For the same compound, the Ctgf gene expression (A2C12 [4]; [10]) was 1.05 log2 of fold change, the Dusp3 gene expression (A2C12 [4]; [10]) was 1.06 log2 of fold change and the Gadd45a gene expression (A2C12 [4]; [10]) was 1.81 log2 of fold change. The Il6 gene expression (A2C12 [4]; [10]) was -4.69 log2 of fold change, the Mmp13 gene expression (A2C12 [4]; [10]) was 2.95 log2 of fold change and the Mtm1 gene expression (A2C12 [4]; [10]) was 1.00 log2 of fold change. The Ptn gene expression (A2C12 [4]; [10]) was -5.35 log2 of fold change, the Ptprg gene expression (A2C12 [4]; [10]) was 1.05 log2 of fold change and the “hnRNP-K protein level” value [5] was “remained equal”. For the same compound, the IC50 (GammaA3; [11]) was 10 ± 2.2 µM, the IC50 (GammaA3; [12]) was 3.8 ± 0.2 µM and the IC50 (BetaD5; [11]) was 13 ± 2.2 µM. It also gave an IC50 (BetaD5; [12]) of 3.6 ± 0.2 µM, an IC50 (GammaD12; Mus musculus, MTS, 24 h, read-out: Calculated IC50 after single treatment for 24 h) of 14.7 ± 0.6 µM and an IC50 (GammaD12; Mus musculus, MTS, 96 h, read-out: Calculated IC50 after daily treatment for 96 h) of 3.5 ± 0.2 µM. For the same compound, the IC50 (A2C12 [6]; [11]) was 25.5 ± 3.8 µM, the IC50 (A2C12 [6]; [12]) was 4.1 ± 0.4 µM and the IC50 (HepG2 [7]; Homo sapiens, 24 h, read-out: Calculated IC50 after single treatment for 24 h) was 64.6 ± 10.3 µM. The IC50 (HepG2 [7]; Homo sapiens, 96 h, read-out: Calculated IC50 after daily treatment for 96 h) was 20.9 ± 1.8 µM, the IC50 (CaCo2 [8]; Homo sapiens, Caco-2, 24 h, read-out: Calculated IC50 after single treatment for 24 h) was 64.6 ± 10.3 µM and the IC50 (CaCo2 [8]; Homo sapiens, Caco-2, 96 h, read-out: Calculated IC50 after daily treatment for 96 h) was 2.1 ± 0.2 µM. It also gave an IC50 (A549 [9]; Homo sapiens, A549, 24 h, 24 h, read-out: Calculated IC50 after single treatment for 24 h) of 26.1 ± 2.6 µM and an IC50 (A549 [9]; Homo sapiens, A549, 96 h, 96 h, read-out: Calculated IC50 after daily treatment for 96 h) of 2.7 µM.
In the case of `Fc1ccccc1CNc1ncnc2c1cnn2CC(Cl)c1ccc(Br)cc1` (stereo not drawn) [Si162], the “Cells in G1 phase” value (HepG2 [1]) is reported as 17.8%, the “Cells in G2 phase” value (HepG2 [1]) is reported as 63% and the “Cells in S phase” value (HepG2 [1]) is reported as 19.3%. The “Cells in G1 phase” value (CaCo2 [2]) was 41.3%, the “Cells in G2 phase” value (CaCo2 [2]) was 12.3% and the “Cells in S phase” value (CaCo2 [2]) was 46.4%. For the same compound, the “Cells in G1 phase” value (A549 [3]) was 8.5%, the “Cells in G2 phase” value (A549 [3]) was “up to 72.3%” and the “Cells in S phase” value (A549 [3]) was 19.2%. The “Cells in G2 phase” value (A549 [3]; listed as Si 162) was 72.3%, the “Actg2 (actin, gamma 2, smooth muscle, enteric) regulated gene, Si162 vs Ktr FC” value (A2C12 [4]) was -4.94 and the “Ccl5 (chemokine (C-C motif) ligand 5) regulated gene, Si162 vs Ktr FC” value (A2C12 [4]) was 2.52. For the same compound, the “Ccna2 (cyclin A2) regulated gene, Si162 vs Ktr FC” value (A2C12 [4]) was -4.48, the “Ccnb2 (cyclin B2) regulated gene, Si162 vs Ktr FC” value (A2C12 [4]) was -4.51 and the “Cenpa (centromere protein A) regulated gene, Si162 vs Ktr FC” value (A2C12 [4]) was -4.34. The “Ctsb (cathepsin B) regulated gene, Si162 vs Ktr FC” value (A2C12 [4]) was 1.13, the “Cxcl12 (chemokine (C-X-C motif) ligand 12) regulated gene, Si162 vs Ktr FC” value (A2C12 [4]) was -1.05 and the “Errfi1 (ERBB receptor feedback inhibitor 1) regulated gene, Si162 vs Ktr FC” value (A2C12 [4]) was -4.38. The “Gadd45a (growth arrest and DNA-damage-inducible, alpha) regulated gene, Si162 vs Ktr FC” value (A2C12 [4]) was 1.40, the “Itga5 (integrin, alpha 5 (fibronectin receptor, alpha polypeptide)) regulated gene, Si162 vs Ktr FC” value (A2C12 [4]) was -4.81 and the “Mdm2 (Mdm2 p53 binding protein homolog (mouse)) regulated gene, Si162 vs Ktr FC” value (A2C12 [4]) was 1.88. For the same compound, the “Mmp3 (matrix metallopeptidase 3 (stromelysin 1, progelatinase)) regulated gene, Si162 vs Ktr FC” value (A2C12 [4]) was 3.28, the “Mmp13 (matrix metallopeptidase 13 (collagenase 3)) regulated gene, Si162 vs Ktr FC” value (A2C12 [4]) was 3.90 and the “Nfib (nuclear factor I/B) regulated gene, Si162 vs Ktr FC” value (A2C12 [4]) was -4.56. The “Ogn (osteoglycin) regulated gene, Si162 vs Ktr FC” value (A2C12 [4]) was -5.77, the “Pdgfrb (platelet-derived growth factor receptor, beta polypeptide) regulated gene, Si162 vs Ktr FC” value (A2C12 [4]) was -4.68 and the “Plk1 (polo-like kinase 1 (Drosophila)) regulated gene, Si162 vs Ktr FC” value (A2C12 [4]) was -4.48. The “Ptn (pleiotrophin) regulated gene, Si162 vs Ktr FC” value (A2C12 [4]) was -4.92, the “Sfrp1 (secreted frizzled-related protein 1) regulated gene, Si162 vs Ktr FC” value (A2C12 [4]) was 1.12 and the “Spp1 (secreted phosphoprotein 1) regulated gene, Si162 vs Ktr FC” value (A2C12 [4]) was 1.21. The “Srf (serum response factor) regulated gene, Si162 vs Ktr FC” value (A2C12 [4]) was -4.68, the “Tgfb1i1 (transforming growth factor beta 1 induced transcript 1) regulated gene, Si162 vs Ktr FC” value (A2C12 [4]) was -4.59 and the “Tgfb3 (transforming growth factor, beta 3) regulated gene, Si162 vs Ktr FC” value (A2C12 [4]) was -4.49. The “Tlr4 (toll-like receptor 4) regulated gene, Si162 vs Ktr FC” value (A2C12 [4]) was 1.09, the “Tnc (tenascin C) regulated gene, Si162 vs Ktr FC” value (A2C12 [4]) was -5.20 and the “Tp53 (tumor protein p53) regulated gene, Si162 vs Ktr FC” value (A2C12 [4]) was -4.50. For the same compound, the “Zyx (zyxin) regulated gene, Si162 vs Ktr FC” value (A2C12 [4]) was -5.47, the “Significantly regulated genes, total (number)” value (A2C12 [4]; IC50 concentration, 96 h) was > 500 and the “Significantly differentially regulated genes, downregulated (number)” value (A2C12 [4]; IC50 concentration, 96 h) was 212. For the same compound, the “Significantly differentially regulated genes, upregulated (number)” value (A2C12 [4]; IC50 concentration, 96 h) was 357, the “Repression of FAK protein” value ([5]; lung cancer cell lines) was “up to 50%” and the IC50 (GammaA3; [13]) was 13.1 ± 1.1 µM. The IC50 (GammaA3; [14]) was 6.4 ± 0.4 µM, the IC50 (BetaD5; [13]) was 8.3 ± 1.2 µM and the IC50 (BetaD5; [14]) was 6.4 ± 0.5 µM. For the same compound, the IC50 (GammaD12; 96 h, read-out: IC50 (MTS) after treatment for 96 h) was 0.8 µM, the IC50 (GammaD12; MTS, 24 h, read-out: Calculated IC50 after single treatment for 24 h) was 11.6 ± 1.3 µM and the IC50 (A2C12 [6]; [13]) was 17.6 ± 1.2 µM. For the same compound, the IC50 (A2C12 [6]; [14]) was 2.1 ± 0.2 µM, the IC50 (HepG2 [7]; [13]) was 34.7 ± 3.4 µM and the IC50 (HepG2 [7]; [14]) was 14.5 µM. The IC50 (CaCo2 [8]; [13]) was > 100 µM, the IC50 (CaCo2 [8]; [14]) was 1.9 ± 0.2 µM and the IC50 (A549 [9]; [13]) was 21.9 ± 2.7 µM. The IC50 (A549 [9]; [14]) was 5 µM.

From paper PMC2994747, “Molecular Characterization of c-Abl/c-Src Kinase Inhibitors Targeted against Murine Tumour Progenitor Cells that Express Stem Cell Markers” (PLoS ONE, 2010)
